Source: patent US9216197B2, “Topical formulations of tellurium-containing compounds” (BIOMAS LTD., priority 2006, dated 2015)

How the values were obtained:
[1] = AS101 solubility profile: solubility and stability (by coloration detection) in various solvents; assay type: physicochemical; conditions: for Coloration / Solubility: 10% by weight AS101, ambient temperature, after 24 hours
Method: In a search for an improved formulation for topical application, the solubility and stability (by coloration detection) of AS101 in various hydrophilic and lipophilic solvents were determined. Since it is commonly known that topically applied formulations have better skin absorption and feel when the active pharmaceutical ingredient is solubilized or is in a molecular form, a desirable topical formulation should be characterized by high solubility and/or dispersability of the active ingredient therein.
Thus, solutions containing 10% by weight of AS101 in each solvent, were prepared by mixing AS101 in the solvent at ambient temperature.

[2] = as above; assay type: physicochemical; conditions: hydroxycellulose
[3] = Heating the mixture of AS101 and propylene glycol; assay type: physicochemical
[4] = Storage of AS101 samples in scintillation glass bottles with aluminum laminated non-sealed caps; assay type: physicochemical; conditions: 30 days at ambient temperature, scintillation glass bottle with non-sealed cap
Method: FIGS. 1A-B present images of the content and packaging components of the containers in which the AS101 powder (FIG. 1A) and the […] AS101 […] solution in DMSO (FIG. 1B) were provided, upon 30 days of storage at ambient temperature.
The white crystalline coarse powder was placed in a scintillation glass bottle with a non-sealed cap.
A 20% (by weight) solution of AS101 in DMSO was prepared. The solution appeared as a yellow liquid with a cloudy dispersion evolving upon mixing. […] However, some unidentified particles were observed.

[5] = Compatibility with aluminum tube packaging and metal equipment; assay type: physicochemical; conditions: any contact with metal equipment
[6] = Microscopic evaluation of samples and polarized light crystallography; assay type: physicochemical
Source text: Microscopic Evaluation of Samples and Polarized Light Crystallography: Formulation Stability Measurements

rats = conditions: intravenous and intramuscular administration; cited from earlier work

Which results are given for `Cl[TeH]1(Cl)(Cl)OCCO1` [AS101, ammonium trichloro(dioxyethylene-O,O′)tellurate]?
Coloration ([1]; 1% acetic acid): No; Solubility ([1]; 1% acetic acid): No; Coloration ([1]; Alkyl benzoate): No; Solubility ([1]; Alkyl benzoate): No; Coloration ([1]; Arlamol E): No; Solubility ([1]; Arlamol E): No; Coloration ([1]; Butyleneglycol): No; Solubility ([1]; Butyleneglycol): Yes; Coloration ([1]; DMI): No; Solubility ([1]; DMI): No; Coloration ([1]; DMSO): No; Solubility ([1]; DMSO): Yes; Coloration ([1]; Glycofurol): No; Solubility ([1]; Glycofurol): Yes; Coloration ([1]; Hexylene glycol): No; Solubility ([1]; Hexylene glycol): No; Coloration ([1]; IPM): No; Solubility ([1]; IPM): No; Coloration ([1]; MCT oil): No; Solubility ([1]; MCT oil): No; Coloration ([1]; Mineral oil): No; Solubility ([1]; Mineral oil): No; Coloration ([1]; PEG 200): No; Solubility ([1]; PEG 200): Yes; Coloration ([1]; PEG 400): No; Solubility ([1]; PEG 400): Yes; Coloration ([1]; Propylene Glycol): No; Solubility ([1]; Propylene Glycol): Yes; Coloration ([1]; Silicone oil): Black; Solubility ([1]; Silicone oil): No; Coloration ([1]; Transcutol): No; Solubility ([1]; Transcutol): Yes; Precipitation or re-crystallization of AS101 ([1]; amphiphilic glycolic solvents: PEG, butyleneglycol, gycofurol, propylene glycol and TRANSCUTOL, during the tested period): no precipitation or re-crystallization; Solution coloration (compatibility) [2]: unacceptable solution coloration; Change upon heating the mixture of AS101 and propylene glycol [3]: no change was observed; State of the aluminum laminate cap after storage [4]: chemically and physically decomposed; Color upon contact with metal equipment [5]: dark, black color; Crystals under polarized light ([6]; polarized light): distinct crystals producing birefrigerence; Particle diameter ([6]; powder): 20-40 microns; LD50 relative to the immunologically effective dose (rats): 500-1000 folds
